From ChEMBL document CHEMBL4312031, “Discovery of candesartan cilexetic as a novel neddylation inhibitor for suppressing tumor growth” (Eur J Med Chem, 2020)
Activity calls are given as the source filed them. The calls are words filed in the database; no cut-off is given here.

Experiments:
[1] = target: T1, NEDD8/Cullin-1 (Homo sapiens) (UniProt Q13616+Q15843); assay: Inhibition of Nedd8-cullin1 (unknown origin) adduct formation assessed as decrease in cullin1 neddylation at 50 uM preincubated for 10 mins followed by ATP addition and measured after 30 mins by immunoblot analysis; format: protein assay
[2] = target: T1, NEDD8/Cullin-1 (Homo sapiens); assay: Inhibition of Nedd8-cullin1 adduct formation in human A549 cells assessed as decrease in cullin1 neddylation at 100 uM incubated for 6 to 12 hrs by Western blot analysis; format: cell-based
[3] = target: T1, NEDD8/Cullin-1 (Homo sapiens); assay: Inhibition of Nedd8-cullin1 adduct formation in human A549 cells assessed as decrease in cullin1 neddylation at 60 to 80 uM measured after 6 hrs by Western blot analysis; format: cell-based
Target sequence in this assay (Q13616 whole entry, looked up): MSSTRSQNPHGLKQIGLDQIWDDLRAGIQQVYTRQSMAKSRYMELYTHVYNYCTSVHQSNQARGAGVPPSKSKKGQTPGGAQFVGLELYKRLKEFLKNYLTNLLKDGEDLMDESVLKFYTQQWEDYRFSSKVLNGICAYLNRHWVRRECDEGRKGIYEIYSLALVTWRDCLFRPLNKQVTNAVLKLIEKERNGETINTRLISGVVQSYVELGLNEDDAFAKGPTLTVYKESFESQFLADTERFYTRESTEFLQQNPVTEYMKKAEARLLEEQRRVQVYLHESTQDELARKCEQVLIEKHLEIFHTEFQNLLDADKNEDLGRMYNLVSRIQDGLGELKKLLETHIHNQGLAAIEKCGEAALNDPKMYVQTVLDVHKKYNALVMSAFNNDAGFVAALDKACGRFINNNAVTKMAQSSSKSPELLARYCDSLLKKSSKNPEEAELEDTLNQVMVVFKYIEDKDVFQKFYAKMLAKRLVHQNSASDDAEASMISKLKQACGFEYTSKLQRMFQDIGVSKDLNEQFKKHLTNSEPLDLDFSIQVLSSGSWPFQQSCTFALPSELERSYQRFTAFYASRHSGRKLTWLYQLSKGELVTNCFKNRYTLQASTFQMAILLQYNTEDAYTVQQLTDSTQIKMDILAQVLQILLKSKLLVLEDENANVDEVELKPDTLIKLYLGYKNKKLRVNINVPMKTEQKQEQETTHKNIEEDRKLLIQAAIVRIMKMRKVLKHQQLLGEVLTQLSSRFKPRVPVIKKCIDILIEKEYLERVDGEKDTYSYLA
Target sequence in this assay (Q15843 whole entry, looked up): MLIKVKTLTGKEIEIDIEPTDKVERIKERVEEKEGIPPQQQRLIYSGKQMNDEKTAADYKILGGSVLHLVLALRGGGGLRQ

[4] = target: T1, NEDD8/Cullin-1 (Homo sapiens); assay: Inhibition of Nedd8-cullin1 adduct formation in human A549 cells assessed as decrease in cullin1 neddylation at 75 uM measured after 6 hrs by Western blot analysis; format: cell-based
Target sequence in this assay (Q13616 whole entry, looked up): as the sequence (Q13616 whole entry, looked up) above
Target sequence in this assay (Q15843 whole entry, looked up): as the sequence (Q15843 whole entry, looked up) above

[5] = target: T1, NEDD8/Cullin-1 (Homo sapiens); assay: Inhibition of Nedd8-cullin1 adduct formation in human A549 cells assessed as decrease in cullin1 neddylation at 50 uM measured after 6 hrs by Western blot analysis; format: cell-based
Target sequence in this assay (Q13616 whole entry, looked up): as the sequence (Q13616 whole entry, looked up) above
Target sequence in this assay (Q15843 whole entry, looked up): as the sequence (Q15843 whole entry, looked up) above

[6] = target: T2, NEDD8 activating enzyme (Homo sapiens, UniProt Q8TBC4); assay: Binding affinity to biotin-labeled GST-tagged NAE (unknown origin) incubated for 1 hr by SPR assay; format: protein-complex assay
T2 sequence (Q8TBC4 whole entry): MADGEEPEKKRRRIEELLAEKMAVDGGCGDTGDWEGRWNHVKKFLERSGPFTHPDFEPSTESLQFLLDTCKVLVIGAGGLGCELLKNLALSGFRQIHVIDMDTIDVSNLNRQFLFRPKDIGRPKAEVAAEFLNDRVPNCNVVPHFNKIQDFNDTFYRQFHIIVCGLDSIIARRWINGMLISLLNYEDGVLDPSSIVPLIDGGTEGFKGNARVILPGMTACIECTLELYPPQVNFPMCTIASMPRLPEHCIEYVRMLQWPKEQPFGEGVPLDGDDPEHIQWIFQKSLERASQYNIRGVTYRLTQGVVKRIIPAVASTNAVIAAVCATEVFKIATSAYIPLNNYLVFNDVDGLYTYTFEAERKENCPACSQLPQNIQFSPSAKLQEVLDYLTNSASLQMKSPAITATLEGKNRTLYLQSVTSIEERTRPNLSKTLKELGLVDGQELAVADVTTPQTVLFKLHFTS
T2 sequence (Q13564 whole entry): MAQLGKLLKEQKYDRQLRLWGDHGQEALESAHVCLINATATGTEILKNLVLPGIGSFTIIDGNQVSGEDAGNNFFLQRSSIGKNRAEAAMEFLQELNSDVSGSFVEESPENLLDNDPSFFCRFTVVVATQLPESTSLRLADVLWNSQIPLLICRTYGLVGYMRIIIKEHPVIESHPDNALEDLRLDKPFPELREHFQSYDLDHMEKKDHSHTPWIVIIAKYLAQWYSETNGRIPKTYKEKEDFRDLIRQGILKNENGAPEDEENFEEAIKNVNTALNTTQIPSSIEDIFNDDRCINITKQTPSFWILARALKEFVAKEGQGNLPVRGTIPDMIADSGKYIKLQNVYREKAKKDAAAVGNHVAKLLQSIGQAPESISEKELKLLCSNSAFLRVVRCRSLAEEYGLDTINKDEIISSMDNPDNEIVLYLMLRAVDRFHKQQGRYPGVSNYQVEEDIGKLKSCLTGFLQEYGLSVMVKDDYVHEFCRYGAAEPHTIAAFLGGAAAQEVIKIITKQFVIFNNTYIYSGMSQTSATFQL

[7] = Toxicity in nude mouse xenografted with human A549 cells assessed as effect on body weight at 30 to 60 mg/kg, ip qd measured every 2 days; format: organism-based; conditions: in vivo, 48 h
[8] = tested on: EKVX; assay: Antiproliferative activity against human EKVX cells measured after 48 hrs by CCK8 assay; format: functional, cell-based
[9] = tested on: NCI-H1299; assay: Antiproliferative activity against human H1299 cells measured after 48 hrs by CCK8 assay; format: functional, cell-based; conditions: NCI-H1299, 48 h
[10] = tested on: HepG2; assay: Antiproliferative activity against human HepG2 cells measured after 48 hrs by CCK8 assay; format: functional, cell-based; conditions: HepG2, 48 h
[11] = tested on: Huh-7; assay: Antiproliferative activity against human HuH7 cells measured after 48 hrs by CCK8 assay; format: functional, cell-based; conditions: Huh-7, 48 h
[12] = tested on: T47D; assay: Antiproliferative activity against human T47D cells measured after 48 hrs by CCK8 assay; format: functional, cell-based
[13] = tested on: MCF7; assay: Antiproliferative activity against human MCF7 cells measured after 48 hrs by CCK8 assay; format: functional, cell-based; conditions: MCF7, 48 h
[14] = tested on: MKN-45; assay: Antiproliferative activity against human MKN45 cells measured after 48 hrs by CCK8 assay; format: functional, cell-based; conditions: MKN-45, 48 h
[15] = tested on: MGC-803; assay: Antiproliferative activity against human MGC803 cells measured after 48 hrs by CCK8 assay; format: functional, cell-based; conditions: MGC-803, 48 h
[16] = tested on: PLC; assay: Antiproliferative activity against human PLC cells measured after 48 hrs by CCK8 assay; format: functional, cell-based
[17] = tested on: EKVX; assay: Antiproliferative activity against human EKVX cells measured after 72 to 96 hrs by CCK8 assay; format: functional, cell-based
[18] = tested on: NCI-H1299; assay: Antiproliferative activity against human H1299 cells measured after 72 to 96 hrs by CCK8 assay; format: functional, cell-based
[19] = tested on: HepG2; assay: Antiproliferative activity against human HepG2 cells measured after 72 to 96 hrs by CCK8 assay; format: functional, cell-based
[20] = tested on: Huh-7; assay: Antiproliferative activity against human HuH7 cells measured after 72 to 96 hrs by CCK8 assay; format: functional, cell-based
[21] = tested on: T47D; assay: Antiproliferative activity against human T47D cells measured after 72 to 96 hrs by CCK8 assay; format: functional, cell-based
[22] = tested on: MCF7; assay: Antiproliferative activity against human MCF7 cells measured after 72 to 96 hrs by CCK8 assay; format: functional, cell-based
[23] = tested on: MKN-45; assay: Antiproliferative activity against human MKN45 cells measured after 72 to 96 hrs by CCK8 assay; format: functional, cell-based
[24] = tested on: MGC-803; assay: Antiproliferative activity against human MGC803 cells measured after 72 to 96 hrs by CCK8 assay; format: functional, cell-based
[25] = tested on: PLC; assay: Antiproliferative activity against human PLC cells measured after 72 to 96 hrs by CCK8 assay; format: functional, cell-based
[26] = tested on: A549; assay: Antitumor activity against human A549 cells xenografted in nude mouse assessed as decrease in tumor weight at 60 mg/kg, ip qd measured after 22 days; format: functional, organism-based
[27] = tested on: A549; assay: Antitumor activity against human A549 cells xenografted in nude mouse assessed as decrease in tumor size at 60 mg/kg, ip qd measured after 22 days; format: functional, organism-based
[28] = target: T1, NEDD8/Cullin-1 (Homo sapiens); assay: Inhibition of Nedd8-cullin1 (unknown origin) adduct formation assessed as decrease in cullin1 neddylation at 10 uM preincubated for 10 mins followed by ATP addition and measured after 30 mins by immunoblot analysis; format: protein assay
Target sequence in this assay (Q13616 whole entry, looked up): as the sequence (Q13616 whole entry, looked up) above
Target sequence in this assay (Q15843 whole entry, looked up): as the sequence (Q15843 whole entry, looked up) above

[29] = Toxicity in nude mouse xenografted with human A549 cells assessed as effect on body weight at 60 mg/kg, ip qd measured every 2 days; format: organism-based; conditions: in vivo, 48 h

For `CCCCCCCCCCCCCCCC[n+]1ccccc1`, the inhibition [1] was “Active” and the inhibition [2] was “inactive”.
For `CN1CCN(CCCN2c3ccccc3Sc3ccc(C(F)(F)F)cc32)CC1`, the inhibition [1] was “Active” and the inhibition [2] was “inactive”.
For `Clc1ccc(CCNC2CCN(Cc3ccccc3)CC2)c(Cl)c1`, the inhibition [3] was “Active”.
With `O=C1c2c(O)ccc(O)c2C(=O)c2c(NCCNCCO)ccc(NCCNCCO)c21` the inhibition [4] was “Active” and the inhibition [5] was “inactive”.
In the case of `CCOc1nc2cccc(C(=O)OC(C)OC(=O)OC3CCCCC3)c2n1Cc1ccc(-c2ccccc2-c2nnn[nH]2)cc1` (stereo not drawn) [CANDESARTAN CILEXETIL], the Kd [6] is reported as 195000 nM and the Activity [7] is reported as “Non-Toxic”.
Compound `NS(=O)(=O)OC[C@@H]1C[C@@H](n2ccc3c(N[C@H]4CCc5ccccc54)ncnc32)C[C@@H]1O` [PEVONEDISTAT] has an IC50 [8] of over 10000 nM, an IC50 [9] of over 10000 nM and an IC50 [10] of over 10000 nM. For the same compound, the IC50 [11] was over 10000 nM, the IC50 [12] was over 10000 nM and the IC50 [13] was over 10000 nM. For the same compound, the IC50 [14] was over 10000 nM, the IC50 [15] was over 10000 nM and the IC50 [16] was over 10000 nM. It also gave an IC50 [17] of 300 to 1200 nM, an IC50 [18] of 300 to 1200 nM and an IC50 [19] of 300 to 1200 nM. The IC50 [20] was 300 to 1200 nM, the IC50 [21] was 300 to 1200 nM and the IC50 [22] was 300 to 1200 nM. It also gave an IC50 [23] of 300 to 1200 nM, an IC50 [24] of 300 to 1200 nM and an IC50 [25] of 300 to 1200 nM. The Activity [26] was “Active”, the Activity [27] was “Active” and the inhibition [28] was “Active”. The Activity [29] was “Non-Toxic”.
In the case of BISMUTH SUBCITRATE POTASSIUM, the inhibition [1] is reported as “Active” and the inhibition [2] is reported as “inactive”.
